Values of other authors in patent US20130007910A1, “STRUCTURE OF THE BRASS[…] BRI1, AND MODULATION OF BRI1 SIGNALING” (Salk Institute for Biological Studies (027731), priority 2011, published 2013).

Biological target: T1, BRI1 (Arabidopsis thaliana, UniProt O22476)
T1 sequence (O22476 24-1196): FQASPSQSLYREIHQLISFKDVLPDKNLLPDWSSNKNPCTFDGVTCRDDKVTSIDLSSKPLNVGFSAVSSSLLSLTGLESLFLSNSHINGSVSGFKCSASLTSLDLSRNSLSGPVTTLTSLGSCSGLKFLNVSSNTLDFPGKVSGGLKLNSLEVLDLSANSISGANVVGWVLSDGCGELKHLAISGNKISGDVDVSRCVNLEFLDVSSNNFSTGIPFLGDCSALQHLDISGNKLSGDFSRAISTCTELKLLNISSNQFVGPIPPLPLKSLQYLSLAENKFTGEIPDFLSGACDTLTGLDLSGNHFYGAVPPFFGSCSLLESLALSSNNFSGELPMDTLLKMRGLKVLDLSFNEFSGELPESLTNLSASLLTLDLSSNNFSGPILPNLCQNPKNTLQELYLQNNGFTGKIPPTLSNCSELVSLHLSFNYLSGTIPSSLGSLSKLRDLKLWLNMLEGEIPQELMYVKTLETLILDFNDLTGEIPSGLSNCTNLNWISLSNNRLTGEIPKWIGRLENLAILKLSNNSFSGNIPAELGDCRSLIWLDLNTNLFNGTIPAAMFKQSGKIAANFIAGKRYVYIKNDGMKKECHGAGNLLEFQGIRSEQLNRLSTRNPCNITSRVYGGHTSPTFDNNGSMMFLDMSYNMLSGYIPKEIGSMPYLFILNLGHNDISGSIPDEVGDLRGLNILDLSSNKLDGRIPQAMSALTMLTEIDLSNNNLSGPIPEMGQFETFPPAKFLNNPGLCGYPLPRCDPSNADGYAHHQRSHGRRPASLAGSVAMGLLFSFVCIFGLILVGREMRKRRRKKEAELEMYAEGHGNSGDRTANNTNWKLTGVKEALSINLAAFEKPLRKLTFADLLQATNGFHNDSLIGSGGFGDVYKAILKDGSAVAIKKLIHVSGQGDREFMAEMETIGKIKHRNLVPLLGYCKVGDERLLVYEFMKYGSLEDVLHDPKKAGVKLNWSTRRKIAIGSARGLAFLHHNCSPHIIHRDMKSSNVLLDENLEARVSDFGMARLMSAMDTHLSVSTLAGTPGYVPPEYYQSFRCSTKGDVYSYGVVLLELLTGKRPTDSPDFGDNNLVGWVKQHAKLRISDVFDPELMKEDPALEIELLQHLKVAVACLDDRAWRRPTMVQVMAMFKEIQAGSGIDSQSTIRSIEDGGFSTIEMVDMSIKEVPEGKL
Conditions: for recognition of steroid ligand by BRI1: known behaviour, explained from the co-crystal structure (alkyl side chain pocket, B-ring contacts)

Compound | affinity of binding to BRI1 (stated in words, no method or figure given) | recognition of steroid ligand by BRI1
CC(C)[C@H](C)[C@@H](O)[C@H](O)[C@@H](C)[C@H]1CC[C@H]2[C@@H]3COC(=O)[C@H]4C[C@H](O)[C@H](O)C[C@]4(C)[C@H]3CC[C@]12C [brassinolide] | nanomolar | 
C[C@H]([C@H](O)CCC(C)(C)O)[C@H]1CC[C@@]2(O)C3=CC(=O)[C@@H]4C[C@@H](O)[C@@H](O)C[C@]4(C)[C@H]3CC[C@]12C [ecdysone] |  | cannot be recognized by BRI1
CC(C)[C@H](C)[C@@H](O)[C@H](O)[C@@H](C)[C@H]1CC[C@H]2[C@@H]3CC(=O)[C@H]4C[C@H](O)[C@H](O)C[C@]4(C)[C@H]3CC[C@]12C [castasterone] |  | tolerated by BRI1
